According to US20080318931A1, “Treatment of Disorders and Diseases of the Colon” (priority 2004, published 2008):
“Also recorded” adds a separate entry of the source.

What was measured:
Format in all cases: cell-based
[1] = system: ConA-induced mouse splenocytes; assay: Con-A-induced mouse splenocyte proliferation/viability, alamar blue; details: 48 hr
Method: Mouse splenocytes were isolated from C57b1 healthy female mice. Cells (10,000/well) were tested under basal and ConA stimulation. Cells were treated with vehicle, dexamethasone or antidepressants (2.5-10 μM). Viability was assessed 48 hr later using alamar blue staining. (Reagents were manufactured by Wildflower, Santa Fe, N. Mex., USA.) Alamar blue assay was performed as in Nociari et al (1998).
Effect of paroxetine, (SSRI) and clomipramine (TCA) as compared to dexamethasone on Con-A-induced splenocyte proliferation (alamar blue method), and splenocyte-induced secretion of TH1 cytokines TNF-α, IL2 and INFγ, 1×10^6 cells/well, was measured 48 hours after exposure to drugs (2.5-10 μM).
In particular, mouse splenocytes were isolated from C57BL healthy female mice. Cells (10,000/well) were then exposed to Con-A (5 μM) and treated with either the vehicle, with dexamethasone or with a drug (2.5-10 μM).
Cell viability was assessed 48 hr later using Alamar blue staining. The results are presented in FIG. 4, where each point is the graph represents the mean of 4 determinations. […]. The IC50 determined for the antidepressant drugs was in the range of 2.5-5.5 μM.
Cells were treated with vehicle, or the antidepressants (2.5-20 μM). Viability was assessed 48 hours later using alamar blue staining. (Each point is the mean+/−SEM of 4 determinations).

[2] = system: Stat3; assay: Stat3 expression in human PHA activated lymphocytes, Western blot; details: 5 μM, PHA 15 μM
Method: Total protein lysates from human lymphocyte culture were prepared by agitation with lysis buffer (20 mM Tris pH 7.5, 150 mM NaCl, 1 mM EDTA, 1% Nonidet P-40, 0.5% sodium deoxycholate, and 2 mM Na2VO4) for 1 h at 4° C. The proteins were cleared by centrifugation at 14,000×g for 20 min at 4° C. Protein concentration was determined using BCA kit (Pierce, Ill., USA). For Western blot analysis, 30 μg-protein from each sample were loaded in 7.5% SDS-PAGE. Electroblotted proteins were detected using specific anti COX-2 polyclonal antibody (Cayman chemical company, Michigan, USA) or an ti-Stat3 monoclonal antibody (Transduction Laboratories Lexington UK). Bound antibodies were visualized using chemiluminescence reaction.

[3] = system: Cyclooxygenase-2 (Cox-2); assay: Cox-2 expression in ConA stimulated mouse splenocytes, Western blot; details: 5 μM, normalized to actin
Method: Determination was performed using Western blot analysis and quantitative dencitometry of blot.
For each sample 2×10^7 cells were used. Cells were lysed, and equal amounts of protein was fractionated on polyacrylamide gel and then transferred to PVDF membrane. The amount of the protein was detected by immuno-blotting with […] anti-Cox-2 anti body (Murine anti COX2 Polyclonal Cat. 160126, Ann Arbor, Mich., USA. 2nd antibody conjugated to horseradish peroxidase was used and visualized with chemiluminescent Kit (Pierce, Rockford, Ill., USA) on film. Quantification of blot was performed using a densitometry apparatus (VersaDoc™ imaging system, BioRad, USA) and levels were normalized to actin.

[4] = system: human lymphocytes (PBMC); assay: PHA-induced human lymphocyte proliferation, alamar blue; details: PHA 2.5 μg/ml, 48 hours
Method: Human blood mononuclear cells (PBMC) were isolated from whole blood of 3 healthy volunteers using Ficoll-Paque gradient (Amersham Sweden). Lymphocyte proliferation was induced by exposure of 1×10^6 cells/well to phytohemagglutinin (PHA) (2.5 μg/ml). Cells were exposed to PHA and treated with vehicle or with paroxetine (2.5-10.0 μM). Cell viability was assessed 48 hours post exposure to paroxetine (2.5-10.0 μM) using Alamar blue reagent (Wildflower, Santa Fe, N. Mex., USA) according to Nociari et al (1998).

Fc1ccc([C@@H]2CCNC[C@H]2COc2ccc3c(c2)OCO3)cc1 [paroxetine]
ConA (mitogen)-induced splenocyte proliferation ([1]; 2.5-10 μM, alamar blue): dose dependent decrease; also recorded: dose-dependent decrease
cell viability compared to dexamethasone ([1]; Con-A 5 μM, drug 2.5-10 μM): decreased cell viability to the same extent as compared to dexamethasone
PHA-induced increase in Stat3 expression [2]: antagonized
reduction of Cox-2 expression [3]: 22.2%
IC50 [4]: 5 to 10 µM
